“And” between values parts separate entries of the source, which are not always exact repeats. Equal values may be shown once. Where a name gives a salt, the structure may show the parent alone. Read-outs that look alike come from different tables or passages of the source.
Columns and labels:
[1] = Solubility of loperamide hydrochloride in the receptor solution (spiked receptor solutions); assay type: physicochemical; conditions: 10% (v/v) N-methyl-2-pyrrolidone in water
Source text: The receptor solution was 10% (v/v) N-methyl-2-pyrrolidone in water.

[2] = Solubility of loperamide hydrochloride in solvents and solvent mixtures (titration to cloud point, HPLC of saturated solutions); assay type: physicochemical
Experimental: The solubility studies of loperamide hydrochloride were initiated using the formulation systems shown in Table I through multiple titrations confirmned by HPLC analysis of saturated solutions. For systems having at least 5% loperamide hydrochloride solubility, the transport of loperamide hydrochloride across the skin was characterized by 500 μL and 20 μL dosing of excised human cadaver skin using a Franz in vitro skin diffusion cell.
Solvent systems were mixed according to weight. For combinations of solvents that were single phase, loperamide hydrochloride was added in 0.1% increments until the system clouded. This was taken as the approximate saturation value for loperamide hydrochloride in that system. The system was then allowed to remain undisturbed for at least 24 hours. Often large crystals of loperamide hydrochloride would form upon standing. This solution was then filtered, appropriately diluted and assayed according to the HPLC method described below.

[3] = cited from earlier work

With `CN(C)C(=O)C(CCN1CCC(O)(c2ccc(Cl)cc2)CC1)(c1ccccc1)c1ccccc1` [loperamide hydrochloride, 4-(p-chlorophenyl)-4-hydroxy-N,N-dimethyl-α,(α-diphenyl-1-piperidinebutyramide hydrochloride] as the molecule, how does the “solubility of loperamide hydrochloride in receptor solution” value [1] read?
Its value is “greater than 380 ppm”.

What about the loperamide hydrochloride solubility ([2]; 1:1:1 propylene glycol:ethanol:ethyl acetate) of the same molecule?
The loperamide hydrochloride solubility was “greater than 5 % (w/w)”.

And the loperamide hydrochloride solubility ([2]; 1:1:4:3 N-methyl-2-pyrrolidone:propylene glycol:alcohol:water)?
The loperamide hydrochloride solubility was “greater than 6 % (w/w)”.

And the loperamide hydrochloride solubility ([2]; 1:1:4:5 N-methyl-2-pyrrolidone:ethyl acetate:ethanol:water)?
Its loperamide hydrochloride solubility is “greater than 5 % (w/w)”.

And the loperamide hydrochloride solubility ([2]; 10% (v/v) water, 18% (v/v) N-methyl-2-pyrrolidone and 72% (v/v) ethanol ternary blend (FIG. 4))?
The loperamide hydrochloride solubility was 19 % (w/w).

What about the loperamide hydrochloride solubility ([2]; 60/40 propylene glycol/ethyl acetate solvent blend (FIG. 2)) of the same molecule?
Its loperamide hydrochloride solubility is 18 % (w/w).

What about the loperamide hydrochloride solubility ([2]; combination of propylene carbonate and ethanol, ratio not stated (FIG. 1)) of the same molecule?
Its loperamide hydrochloride solubility is “exceeded 20 % (w/w)”.

What about the “loperamide hydrochloride in solution” value ([2]; formulations of mixtures of water, alcohols and organic solvents, ambient temperatures) of the same molecule?
Its value is “up to 30 % (w/w)”.

And the loperamide hydrochloride solubility ([2]; most non-aqueous organic solvents (exceptions NMP, propylene glycol, ethanol))?
The loperamide hydrochloride solubility was “less than 1 % (w/w)”.

What about the “Loperamide hydrochloride Solubility (w/w)” value ([2]; solvent Ethanol, hydrochloride) of the same molecule?
The value was 10 % (w/w).

What about the “Loperamide hydrochloride Solubility (w/w)” value ([2]; solvent Isopropyl Myristate) of the same molecule?
The value was 0.001% (w/w).

What about the “Loperamide hydrochloride Solubility (w/w)” value ([2]; solvent N-methyl-2-pyrrolidone, hydrochloride) of the same molecule?
Its value is 16 % (w/w).

And the “Loperamide hydrochloride Solubility (w/w)” value ([2]; solvent Propylene Glycol, hydrochloride)?
Its value is 9 % (w/w) and 8 % (w/w).

And the loperamide hydrochloride solubility ([2]; the solvents of Table 1 except N-methyl-2-pyrrolidone, ethanol and propylene glycol)?
Its loperamide hydrochloride solubility is ≤ 0.5 % (w/w).

And the solubility ([3]; 2-butanone)?
Its solubility is 0.18 grams per 100 mL solvent.

And the solubility ([3]; 2-propanol)?
The solubility was 1.11 grams per 100 mL solvent.

What about the solubility ([3]; 4-methyl-2-pentanone) of the same molecule?
Its solubility is 0.020 grams per 100 mL solvent.

What about the solubility ([3]; N,N-dimethylformamide) of the same molecule?
Its solubility is 10.3 grams per 100 mL solvent.

And the solubility ([3]; acetone)?
The solubility was 0.20 grams per 100 mL solvent.

What about the solubility ([3]; citrate-phosphate buffer (pH 6.1)) of the same molecule?
Its solubility is 0.008 grams per 100 mL solvent.

What about the solubility ([3]; citrate-phosphate buffer (pH 7.9)) of the same molecule?
Its solubility is “less than 0.001 grams per 100 mL solvent”.

What about the solubility ([3]; dichloromethane) of the same molecule?
The solubility was 35.1 grams per 100 mL solvent.

What about the solubility ([3]; diethyl ether) of the same molecule?
The solubility was “less than 0.001 grams per 100 mL solvent”.

And the solubility ([3]; dimethylsulfoxide)?
The solubility was 20.5 grams per 100 mL solvent.

What about the solubility ([3]; ethanol) of the same molecule?
The solubility was 5.37 grams per 100 mL solvent.

And the solubility ([3]; ethyl acetate)?
The solubility was 0.035 grams per 100 mL solvent.

And the solubility ([3]; hexane)?
The solubility was “less than 0.001 grams per 100 mL solvent”.

And the solubility ([3]; methanol)?
Its solubility is 28.6 grams per 100 mL solvent.

And the solubility ([3]; polyethylene glycol 400)?
Its solubility is 1.40 grams per 100 mL solvent.

And the solubility ([3]; propylene glycol)?
The solubility was 5.64 grams per 100 mL solvent.

What about the solubility ([3]; tetrahydrofuran) of the same molecule?
The solubility was 0.32 grams per 100 mL solvent.

What about the solubility ([3]; toluene) of the same molecule?
Its solubility is 0.001 grams per 100 mL solvent.

And the solubility ([3]; water (at physiological pH))?
The solubility was 0.002 grams per 100 mL solvent.

And the solubility ([3]; water (pH 1.7))?
The solubility was 0.14 grams per 100 mL solvent.

Reference: US6355657B1, “System for percutaneous delivery of opioid analgesics” (Atrix Laboratories, Inc., priority 1998, dated 2002)
